Assay results as given in paper PMC8878324, “Evaluation of New Antimicrobial Agents Based on tris(1H-Indol-3-yl)methylium Salts: Activity, Toxicity, Suppression of Experimental Sepsis in Mice” (Pharmaceuticals, 2022).
Values after ≈ are worked out from the molar mass of the structure shown.

Assays:
[1] = test system: Pseudomonas aeruginosa ATCC 27853; test: MIC by broth microdilution; assay type: cell-based; details: ATCC27853
Description: (§1) We have tested the antimicrobial activity in vitro of over 100 tris(indolyl)methane derivatives against 16 strains of Gram-positive, Gram-negative bacteria and fungi including either sensitive or drug-resistant strains from ATCC, as well as resistant clinical isolates from the culture collection of the Laboratory for Control of Hospital Infections (Sechenov University, Moscow, Russia). The minimum inhibitory concentrations (MICs) were determined by the microdilution method in a cation-adjusted Müller–Hinton medium for bacteria and in a liquid culture medium RPMI 1640 with L-glutamine without sodium bicarbonate for fungi in accordance with the requirements of the Institute of Clinical and Laboratory Standards (CLSI/NCCLS). […] As a rule, their activity against Gram-negative bacteria was usually not that high. […] For comparison, the antimicrobial activity of prototype 4 is shown. The antibacterial antibiotic levofloxacin and the antifungal amphotericin B were used as reference drugs (Table 1).
(§2) The synthesis of compounds and the scheme of their preparation and purification, as well as physicochemical characteristics, were described earlier. To evaluate the biological activity in vitro, the compounds were dissolved in DMSO at a concentration of 2.0–6.4 mg/mL, followed by preparation of two-fold dilutions in the same solvent, if necessary. The solutions were further diluted in an aqueous medium for the final concentration of DMSO not to exceed 1%, and the concentration of the compounds ranged from 64.0 to 0.13 μg/mL. To study compounds in vivo, solutions for intravenous administration in 5% glucose solution were prepared. Solutions were sterilized by filtration through 0.22 µm filters (Millipore, Burlington, MA, USA).
(§3) Strains of Gram-positive, Gram-negative bacteria and fungi including sensitive or drug-resistant strains from ATCC, as well as resistant clinical isolates from the culture collection of the Laboratory for Control of Hospital Infections (Sechenov University, Moscow, Russia), were used. Clinical isolates of Gram-positive bacteria Staphylococcus aureus 5 (MRSA), Staphylococcus aureus 10, Staphylococcus aureus 100KC (MRSA), Staphylococcus epidermidis 533, Staphylococcus haemoliticus 585 and Enterococcus faecium 569, as well as collection cultures of Gram-positive bacteria Staphylococcus aureus ATCC 700699, Staphylococcus aureus ATCC 25923, Staphylococcus aureus ATCC 3798 and collection cultures of Gram-negative bacteria Escherichia coli ATCC 25922, Klebsiella pneumoniae ATCC 13883, Proteus vulgaris ATCC 13315, Salmonella cholerasuis ATCC 14028, Pseudomonas aeruginosa ATCC 27853 and collection cultures of the yeast Candida albicans ATCC 14053 and the fungi Aspergillus niger ATCC 16404 were used. To grow the microorganisms, we used Trypticase Soy Agar (TSA, Sigma-Aldrich Co., Burlington, MA, USA). Trypticase Soy Agar, BBL, was used for cultivation of Staphylococcus spp. and E. coli. For cultivation of Enterococcus spp. and P. aeruginosa we used a ready-made dry medium Columbia Agar Base, BBL. The media were sterilized by autoclaving at 121 °C for 15 min. Yeast culture C. albicans was grown on Sabouraud agar (peptone—10 g, glucose—40 g, agar—20 g, distilled water—1 L, pH 6.0), and filamentous fungi A. niger was grown on potato–glucose agar (potatoes—200 g, glucose—20 g, agar—15 g, distilled water—1 L, pH 5.5–6.0).
(§4) To determine the antibacterial effect, a liquid Müller–Hinton medium (Becton, Dickinson and Company, Cockeysville, MD, USA) was used; to determine the effect of compounds on fungi we used RPMI 1640 medium with L-glutamine, without sodium bicarbonate, which was prepared from a dry medium (ICN Biomedicals Inc., Costa Mesa, CA, USA) by dilution in distilled water, subsequent buffering with 0.165 M of morpholinepropanesulfonic acid (MOPS, Acros Organics B.V.B.A., Morris Plains, NJ, USA) and adjusting the pH of the medium to 7.0 by adding 1 N of NaOH solution. […]

[2] = test system: Staphylococcus aureus 10; test: MIC by broth microdilution; assay type: cell-based
Description: as §1, §2, §3, §4

[3] = test system: Staphylococcus aureus 5; test: MIC by broth microdilution; assay type: cell-based; details: Staphylococcus aureus 5 (MRSA)
Description: as §1, §2, §3, §4

[4] = test system: Enterococcus faecium 569; test: MIC by broth microdilution; assay type: cell-based; details: for MIC: Enterococcus faecium 569; for activity against Enterococcus faecium 569: in words, strain resistant to cefuroxime, clindamycin, gentamycin, vancomycin and doxycycline
Description: as §1, §2, §3, §4

[5] = test system: Salmonella cholerasuis ATCC 14028; test: MIC by broth microdilution; assay type: cell-based; details: ATCC14028
Description: as §1, §2, §3, §4

[6] = test system: Staphylococcus aureus ATCC 25923; test: MIC by broth microdilution; assay type: cell-based; details: ATCC25923
Description: as §1, §2, §3, §4

[7] = test system: Proteus vulgaris ATCC 13315; test: MIC by broth microdilution; assay type: cell-based; details: ATCC13315
Description: as §1, §2, §3, §4

[8] = test system: Staphylococcus aureus 100KC; test: MIC by broth microdilution; assay type: cell-based; details: Staphylococcus aureus 100KC (MRSA)
Description: as §1, §2, §3, §4

[9] = test system: Klebsiella pneumoniae ATCC 13883; test: MIC by broth microdilution; assay type: cell-based; details: ATCC13883
Description: as §1, §2, §3, §4

[10] = Cytotoxic activity, MTT assay; assay type: cell-based, human; details: human, HPF-hTERT
Description: (§5) The cytotoxic activity of the compounds was evaluated on the healthy donor (postnatal) human fibroblasts immortalized by transfection of the hTERT gene of the catalytic component of telomerase (hereinafter HPF-hTERT) that were obtained from N.N. Blokhin Russian Cancer Research Center. HFC-hTERT cells were cultured in Dulbecco’s modified medium (DMEM) containing 2 mM of L-glutamine, 10% fetal calf serum, 100 U/mL of penicillin and 100 μg/mL of streptomycin. Incubation was performed in a humidified atmosphere of 5% CO2 at 37 °C. In the experiment, we used cells in the logarithmic growth phase. To study the cytotoxicity of compounds, 190 μL of cell suspension (~2 thousand cells per well) was added to the wells of 96-well plates and incubated for 16 h. On the day of the experiment, serial dilutions of the test compounds were prepared in DMSO (stock solution—10 mM in 100% DMSO). Further dilutions were conducted in a nutrient medium. The final concentrations of compounds in the experiment were in a concentration range from 0.0025 to 50 μM. The final concentration of DMSO was 1% or less. Each concentration was presented in 3 repetitions. […] The cells were incubated with the test compounds for 72 h. After the end of incubation, 20 μL of MTT solution in growth medium (5 mg/mL) was added to the wells. The cells were incubated for 2 h until a purple color developed, after which the culture medium was removed. DMSO was added to the wells, and the sediment was suspended. Optical density was measured with a Thermo Scientific Multiscan FC spectrophotometer at 570 nm. The values of optical density in wells without addition of test compounds (control) were taken as 100% cell survival. The percentage of survival of cells incubated with the test compounds was calculated by dividing the optical density in the corresponding well (average of 3 independent measurements) by the optical density in the control. The concentration of drugs causing 50% cell death (IC50) was evaluated and expressed in μg/mL.

[11] = test system: HPF-hTERT; test: Cytotoxic activity, MTT assay; assay type: cell-based, human; details: 72 h
Description: as §5

SMILES | MIC [1] [mg/L] | MIC [2] [mg/L] | MIC [3] [mg/L] | MIC [4] [mg/L] | activity against Enterococcus faecium 569 [4] | MIC [5] [mg/L] | MIC [6] [mg/L] | MIC [7] [mg/L] | MIC [8] [mg/L] | MIC [9] [mg/L] | IC50 at 72 h [10] [mg/L] | Cytotoxic Activity IC50 [11] [mg/L]
CCCn1cc([C+](c2cn(CCC)c3ccccc23)c2cn(C3=C(N(C)C)C(=O)NC3=O)c3ccccc23)c2ccccc21 [Compound 3, 1-(4-Dimethylamino-2,5-dioxo-2,5-dihydro-1H-pyrrol-3-yl) -1H-indol-3-yl) bis(1-propyl-1H-indol-3-yl) methylium chloride] | 16 | 0.25 | 0.5 | > 64 | inactive | > 64 | 0.13 | > 64 | 0.13 | > 64 | 0.57 | 0.6
OCCCCCn1cc([C+](c2cn(CCCCCO)c3ccccc23)c2cn(CCCCCO)c3ccccc23)c2ccccc21.[Cl-] [Compound 1, tris(1-(5-Hydroxypentyl)-1H-indol-3-yl) methylium chloride] | > 64 | 1 | 4 | 8 | reduced activity | > 64 | 2 | 64 | 2 | 2 | 12.6 | 13
C[C@H]1COc2c(N3CCN(C)CC3)c(F)cc3c(=O)c(C(=O)O)cn1c23 [Levofloxacin, levofloxacin, reference compound] | 1 (≈ 2.77 µM) | 0.13 (≈ 0.36 µM) | 0.25 (≈ 0.692 µM) | 1 (≈ 2.77 µM) |  | 0.13 (≈ 0.36 µM) | 0.25 (≈ 0.692 µM) | 4 (≈ 11.1 µM) | 32 (≈ 88.6 µM) | 0.25 (≈ 0.692 µM) | > 50 | 
CCCn1cc([C+](c2cn(CCC)c3ccccc23)c2cn(C3=C(N)C(=O)NC3=O)c3ccccc23)c2ccccc21.[Cl-] [Compound 2, (1-(4-Amino-2,5-dioxo-2,5-dihydro-1H-pyrrol-3-yl)-1H-indol-3-yl)bis(1-propyl-1H-indol-3-yl) methylium chloride] | 32 | 0.5 | 0.25 | 8 |  | > 64 | 0.5 | 16 | 0.5 | > 64 | 2.77 | 2.8
